Here are results for three molecules from patent US20150190410A1, “USE OF CREATINE AND PHOSPHOCREATINE IN THE TREATMENT OF EPILEPSY AND ALCOHOL ADDICTION” (Dignity Health, priority 2012, published 2015).

“And” between values parts separate entries of the source, which are not always exact repeats. Identical values can stand only once.

Experiment [1] concerns atypical absence epilepsy rodent models. Briefly: AY9944 atypical absence epilepsy rodent model: seizure number and seizure time under creatine. In kind it is in vivo, rat. The settings on record: for Seizure # Between 13:00:00 to 15:00:00: twice daily injection of creatine at 30 mg/kg, individual epileptic animals. The procedure:
• Induced via administering the cholesterol inhibitor AY9944 during postnatal developing period P2 to P21. • Epileptic seizure is chronic, resembling all the symptoms of atypical absence epilepsy • Failure to show ictal immobility • Slow spike-wave discharges • Cognitive impairments • Counterintuitive with application of GABA Positive allosteric modulators and Agonists. • Greater seizure susceptibility in female than male.
11 epileptic animals were treated initially with saline to establish base line (day 0), then treated with twice daily injection of creatine at 30 mg/kg (days 1-5). […] Specifically, the inventors performed the following: • Day 0—Control (saline injection) • Injection of creatine between days 1-5—twice daily injection of 30 mg/kg of creatine • Day #2 (30 mg/kg creatine) • Day #5 (30 mg/kg creatine)

For experiment [2] the test system is unchanged. The experiment is described as above. It is filed as in vivo, rat.
Experiment [3] has as its system GABAA receptor expressing cells. In words: Co-application with ethanol on GABAA receptor expressing cells. In kind it is cell-based. The settings on record: depends on concentration relative to ethanol. From the text: Thus, in one embodiment, creatine, phosphocreatine and their analogs can be used to prevent and/or provide protection against alcohol addiction.
Alcoholism is a serious problem both to the individual, the individual's family, and society. Currently there is no compound that can effectively prevent alcoholism. Alcohol (Ethanol) acts as a positive allosteric modulator of extrasynaptic GABAA receptors. […] Thus creatine, phosphocreatine and their analogs may be used to prevent and/or provide protection against alcohol addiction.

Experiment [4] relates to extra-synaptic GABAA receptors. Briefly: Allosteric modulation of extra-synaptic GABAA receptors (expression cells; whole cell patch clamp). In kind it is cell-based. An excerpt:
FIG. 3 depicts, in accordance with an embodiment herein, utilizing whole cell patch clamp on primary cultured neuron (rat cortex) to confirm creatine's effect on extra-synaptic GABAA receptors.
In general terms: Patch clamp records ionic current or voltage across a cell membrane.

[5] abbreviates: Day 2 vs Day 0 saline control, 30 mg/kg twice daily, individual animals, 30 mg/kg.
[6] abbreviates: Day 5 vs Day 0 saline control, 30 mg/kg twice daily, individual animals, 30 mg/kg.
The mark [7] stands for this setting: average of 11 animals, Day 2, 30 mg/kg twice daily.
The mark [8] stands for this setting: average of 11 animals, Day 5, 30 mg/kg twice daily.

With `CN(CC(=O)O)C(=N)N` [creatine], in experiment [1] (Day 2, 30 mg/kg), the “Seizure # Between 13:00:00 to 15:00:00” value is 2 and 17 (2×) and 14 and 7 and 31 and 25 and 16 and 20 and 4 and 15. In addition, in experiment [1] (setting [5]), the “% Seizure # Reduction, Day #2 Post Creatine/Control” value was 28.57% and 91.30% and 63.04% and 56.25% and 12.50% and 27.91% and 30.56% and 44.83% and 25.93% and 69.23% and 26.09%; the “% Total Seizure Time Reduction, Day #2 Post Creatine/Control” value was 63.25% and 80.95% and 92.74% and 82.31% and 52.13% and 40.86% and 76.08% and 73.42% and 89.95% and 85.75% and 74.05%. For the same molecule, in experiment [1] (Day 5, 30 mg/kg), the “Seizure # Between 13:00:00 to 15:00:00” value is 5 (2×) and 21 and 18 and 4 and 26 and 23 and 13 and 16 and 10 and 15. Besides, in experiment [1] (setting [6]), the “% Seizure # Reduction, Day #5 Post Creatine/Control” value was 76.19% and 78.26% and 54.35% and 43.75% and 50.00% and 39.53% and 36.11% and 55.17% and 40.74% and 23.08% and 34.78%; the “% Total Seizure Time Reduction, Day #5 Post Creatine/Control” value is 86.37% and 70.56% and 58.23% and 70.52% and 46.23% and 35.72% and 80.58% and 85.99% and 92.36% and 36.75% and 74.61%. Further, in experiment [1] (setting [7]), the “% Seizure # Reduction, Day #2 Post Creatine/Control, Average” value came to 43.29% and the “% Total Seizure Time Reduction, Day #2 Post Creatine/Control, Average” value is 73.77%. Further, in experiment [1] (setting [8]), the “% Seizure # Reduction, Day #5 Post Creatine/Control, Average” value turned out to be 48.36% and the “% Total Seizure Time Reduction, Day #5 Post Creatine/Control, Average” value amounted to 67.08%. Also, in experiment [1] (epileptic rodent model), the “reduction in duration of epileptic seizure events” value is on record as “greater than 70%” and the “reduction in frequency of epileptic seizure events” value was “greater than 70%”. For the same molecule, in experiment [2], the “duration of effect of a single dose compared to current antiepileptic drugs” value is given as “last much longer than conventional antiepileptic drugs”. The “effect on the GABAA receptor positive allosteric modulator effect of alcohol (ethanol)” value in experiment [3] is reported as “preventing or significantly diminishing”. The “mode of action on extra-synaptic GABAA receptors” value in experiment [4] is recorded as “partial negative allosteric modulator”.
For `NC1=NCCN1CC(=O)O` [cyclocreatine], the “therapeutic effect compared with creatine” value in experiment [1] (atypical absence epilepsy rodent models) was “does not confer the same therapeutic effect as creatine”.
Take `CN(CC(=O)O)C(=N)NP(=O)(O)O` [phosphocreatine]: in experiment [3], the “effect on the GABAA receptor positive allosteric modulator effect of alcohol (ethanol)” value is given as “preventing or significantly diminishing”. In addition, in experiment [4] (expression cells), the “effect on expression cells compared with creatine” value is given as “same effect as creatine”.
